Laboratory results: patent publication US11957931B2, “Compositions and methods for treating vitiligo” (YALE UNIVERSITY, priority 2017, dated 2024)
Where two headings read alike, the source gives them in different places. Marks after values point to notes of the source that are not given here.

Experiments:
patients with vitiligo [1] = assay: Adverse event monitoring in the case series (laboratory monitoring, physical exams, review of systems); assay type: in vivo, human
Excerpt: (§3) This study is a retrospective case series of 10 patients seen between July 2014 and January 2017. […] Clinical and demographic information, including biological sex, age, disease duration and course, medical history, family history, and prior treatments were collected. Before initiating tofacitinib, all patients underwent baseline laboratory evaluation including comprehensive metabolic panel, complete blood cell count with differential, fasting lipid panel, QuantiFERON-TB Gold® ([…] Limited, Melbourne, Australia), and screening for HIV and hepatitis B and C. Body surface area (BSA) of depigmentation was assessed prior to and at the end of treatment. Serial laboratory monitoring, physical exams, and review of systems were used to monitor for adverse events.

patients with vitiligo [2] = assay: Retrospective case series of vitiligo patients treated with tofacitinib: BSA of depigmentation / repigmentation; assay type: in vivo, human; design: key to Responder Status: R, responder; NR, non-responder
Excerpt: as §3

CXCL10 = CXCL10 ELISA of blister fluid and serum; assay type: in vivo, human; settings: Patient 1; following treatment
Method: (§1) The Negative Pressure Instrument Model NP-4 (Electronic Diversities®, Finksburg, MD) was used to induce suction blisters (1 cm in diameter). Blisters formed at a pressure between […] negative pressure and at a constant temperature of 40° C. Once blisters formed, the blister fluid was aspirated […] through the roof using a 1 mL insulin syringe. Cells in the blister fluid were pelleted at 330×g for 10 minutes and prepared for flow cytometry. The supernatant of the blister fluid was stored at −80° C. until analysis by enzyme-linked immunosorbent-assays (ELISA) for chemokines. None of the blisters were hemorrhagic.
(§2) Chemokines were assayed using the Human CXLC9/MIG DuoSet ELISA (DY392) and Human CXCL10/IP-10 DuoSet ELISA (DY266, R&D Systems) per the manufacturer's instructions. Optical densities were measured using a Perkin Elmer EnVision 2102® multilabel reader and analyzed using a 4 parameter […] standard curve.

CD8^+ T cells = assay: Suction blister sampling, flow cytometry of CD8+ T cells in blister fluid; assay type: in vivo, human; settings: Patient 1; after 10 months of tofacitinib vs baseline; responding, non-responding and non-lesional sites
Method: The Negative Pressure Instrument Model NP-4 (Electronic Diversities®, Finksburg, MD) was used to induce suction blisters (1 cm in diameter). Blisters formed at a pressure between 10-15 mm Hg negative pressure and at a constant temperature of 40° C. Once blisters formed, the blister fluid was aspirated 135 through the roof using a 1 mL insulin syringe. Cells in the blister fluid were pelleted at 330×g for 10 minutes and prepared for flow cytometry. […] Cells were blocked with Human TruStain and incubated with an antibody cocktail for 30 minutes at 4° C. Anti-human CD45 (2D1) and CD8 (SK1) were used at 1:20 dilution. Anti-human CD3 (OKT3) was used at 1:200 dilution (BioLegend) and Fixable Viability Dye eFluor 455UV at 1:1000 (Ebioscience).

[3] = system: melanocyte-specific T cells (HLA pentamer positive); settings: Patient 1; after treatment vs baseline
Method: Cells were blocked with Human TruStain and incubated with an antibody cocktail for 30 minutes at 4° C. Anti-human CD45 (2D1) and CD8 (SK1) were used at 1:20 dilution. Anti-human CD3 (OKT3) was used at 1:200 dilution (BioLegend) and Fixable Viability Dye eFluor 455UV at 1:1000 (Ebioscience).

patients with vitiligo [4] = system: patients with vitiligo
CXCL9 = CXCL9 ELISA of blister fluid and serum; assay type: in vivo, human; settings: Patient 1; following treatment
Method: as §1, §2

[5] = Patient 1, earlier course, 5 mg daily, over 5 months
[6] = Patient 2, 5 mg twice daily, after 8 months
[7] = Patient 3, 5 mg twice daily plus nbUVB 150 mJ every other day, after 11 months
[8] = Patient 4, after 14 months of therapy
[9] = Case 1, 5 mg twice daily plus full-body narrowband UV-B (400-500 mJ) twice weekly, after 3 months
[10] = Cases 1 and 2, at last follow-up

C[C@@H]1CCN(C(=O)CC#N)C[C@@H]1N(C)c1ncnc2[nH]ccc12 [tofacitinib, 3-((3R,4R)-4-methyl-3-(methyl(7H-pyrrolo[2,3-d]pyrimidin-4-yl)amino)piperidin-1-yl)-3-oxopropanenitrile]
serious adverse events (patients with vitiligo [1]; 10 patients): no serious adverse events
adverse events overall (patients with vitiligo [1]; in vivo): mild and infrequent
arthralgias (patients with vitiligo [1]; of 10 patients): one patient reported arthralgias
mild elevations of lipids (patients with vitiligo [1]; of 10 patients): 4 patients
upper respiratory infection (most common side effect) (patients with vitiligo [1]; of 10 patients): 2 patients
weight gain (patients with vitiligo [1]; reported by one patient of 10): 5 pounds
Responder Status (patients with vitiligo [2]; Patient 1): R
repigmentation at other body sites, including the trunk (patients with vitiligo [2]; [5]): only minimal repigmentation
repigmentation of face, forearms and dorsal hands (patients with vitiligo [2]; [5]): near complete repigmentation
repigmentation on re-treatment (patients with vitiligo [2]; Patient 1, 5 mg daily over 6 months, started in late spring): repigmentation of the face, forearms and dorsal hands, and the upper back and shoulders, but not the lower back or other sun-protected body sites
BSA after to tofacitinib (patients with vitiligo [2]; Patient 1, BSA prior to tofacitinib 10%, treatment duration 10 months): 4%
course after stopping tofacitinib (patients with vitiligo [2]; Patient 1, tofacitinib stopped for 8 months, areas that had previously responded): depigmentation recurred
Responder Status (patients with vitiligo [2]; Patient 2): R
repigmentation of dorsal hands and lower legs (patients with vitiligo [2]; [6]): islands of repigmentation
repigmentation of face, neck (not submental area) and forearms (patients with vitiligo [2]; [6]): near-complete repigmentation
sun-protected body sites (patients with vitiligo [2]; [6]): remained unchanged
repigmentation of face, lateral and posterior neck, and forearms (patients with vitiligo [2]; Patient 2, 5 mg twice daily, over 3 months, sun exposure): partial repigmentation
BSA after to tofacitinib (patients with vitiligo [2]; Patient 2, BSA prior to tofacitinib 28%, treatment duration 8 months): 24%
maintenance of repigmentation (patients with vitiligo [2]; Patient 2, while taking tofacitinib during the winter, minimal sunlight exposure): Repigmentation was maintained
Responder Status (patients with vitiligo [2]; Patient 3): R
repigmentation of all other body sites (patients with vitiligo [2]; [7]): innumerable islands of repigmentation
repigmentation of the back (patients with vitiligo [2]; [7]): > 75%
repigmentation of the face (patients with vitiligo [2]; [7]): complete repigmentation
BSA after to tofacitinib (patients with vitiligo [2]; Patient 3, BSA prior to tofacitinib 39%, treatment duration 11 months, concomitant nbUVB): 24%
Responder Status (patients with vitiligo [2]; Patient 4): R
BSA after to tofacitinib (patients with vitiligo [2]; Patient 4, BSA prior to tofacitinib 10%, treatment duration 14 months): 8%
repigmentation of hands and sun-protected body sites (patients with vitiligo [2]; [8]): neither the hands nor sun-protected body sites, however, showed evidence of repigmentation
repigmentation of the face (patients with vitiligo [2]; [8]): near-complete repigmentation
Responder Status (patients with vitiligo [2]; Patient 5): R
response of vitiligo to tofacitinib alone (patients with vitiligo [2]; Patient 5, 5-10 mg twice daily for 1 year, before nbUVB, hands disguised with makeup): unresponsive
BSA after to tofacitinib (patients with vitiligo [2]; Patient 5, BSA prior to tofacitinib 2%, treatment duration 10 months, islands of repigmentation after 12 nbUVB treatments did not change BSA appreciably): 2%*
repigmentation after adding nbUVB hand phototherapy (patients with vitiligo [2]; Patient 5, concomitant nbUVB, approximately 12 treatments (most recent dose 350 mJ)): islands of repigmentation were apparent
Responder Status (patients with vitiligo [2]; Patient 6): NR
BSA after to tofacitinib (patients with vitiligo [2]; Patient 6, BSA prior to tofacitinib 7%, treatment duration 3 months): 7%
Responder Status (patients with vitiligo [2]; Patient 7): NR
BSA after to tofacitinib (patients with vitiligo [2]; Patient 7, BSA prior to tofacitinib 1%, treatment duration 9 months): 1%
Responder Status (patients with vitiligo [2]; Patient 8): NR
BSA after to tofacitinib (patients with vitiligo [2]; Patient 8, BSA prior to tofacitinib 4%, treatment duration 15 months): 4%
Responder Status (patients with vitiligo [2]; Patient 9): NR
BSA after to tofacitinib (patients with vitiligo [2]; Patient 9, BSA prior to tofacitinib 6%, treatment duration 4 months): 6%
Responder Status (patients with vitiligo [2]; Patient 10): NR
BSA after to tofacitinib (patients with vitiligo [2]; Patient 10, BSA prior to tofacitinib 100%, treatment duration 11 months): 100%
mean decrease of BSA involvement with vitiligo (patients with vitiligo [2]; in 5/10 patients, tofacitinib 5-10 mg QD-BID, average 9.5 months): 5.4 % BSA
overall finding: repigmentation and light exposure (patients with vitiligo [2]; sunlight or nbUVB phototherapy): only led to repigmentation when there was concomitant light exposure
repigmentation (patients with vitiligo [2]; the other 5 of 10 patients, tofacitinib 5-10 mg QD-BID): did not achieve any repigmentation
CXCL10 level in blister fluid (CXCL10): undetectable
CXCL10 level in serum (CXCL10): undetectable
CD8+ T cell number in blister fluid (CD8^+ T cells): absolute numbers in each site were reduced
percentage of melanocyte-specific T cells (HLA pentamer positive) in PBMCs [3]: did not change with tofacitinib treatment, and even increased slightly
repigmentation of neck, chest, forearms and shins (patients with vitiligo [4]; [9]): ≥ 75%
repigmentation of the dorsal hands (patients with vitiligo [4]; [9]): only minimal freckling
repigmentation of the face (patients with vitiligo [4]; [9]): nearly complete repigmentation
repigmentation of the face (patients with vitiligo [4]; Case 2, 5 mg twice daily plus narrowband UV-B (360-500 mJ) 2 to 3 times weekly to only the face, after 3 months): about 50%
facial repigmentation (patients with vitiligo [4]; Case 2, 5 mg twice daily plus narrowband UV-B (360-500 mJ) 2 to 3 times weekly to only the face, after 6 months): about 75%
repigmentation at the other body sites (no UV-B) (patients with vitiligo [4]; Case 2, 5 mg twice daily, narrowband UV-B to only the face): No repigmentation occurred
adverse effects (patients with vitiligo [4]; [10]): no adverse effects
complete blood cell count, liver function tests, serum creatinine, fasting lipids (patients with vitiligo [4]; [10]): no abnormalities
CXCL9 level in blister fluid (CXCL9): undetectable
CXCL9 level in serum (CXCL9): undetectable
